Measurements: PubChem BioAssay AID1963826 (Molecular Pharmacology Branch, DTP, NCI, 2024)

System: 926638-142-R-J1-PDC complex spheroid viability
Test: Anticancer human tumor 926638-142-R-J1-PDC patient-derived endometrial carcinoma cell line growth inhibition [POLQ]
Details: for IC50: curve of first compound; for viability, T/C: stronger effect = lower value
Protocol: Multicellular complex tumor spheroid response to Polymerase (POL) inhibitors (novobiocin, ART-558, RP6685) in combination with a variety of drugs and investigational agents in selected tumor cell lines
The POL inhibitors (novobiocin, ART-558, and RP6685) were evaluated both individually and in combination with standard of care and investigational anticancer small molecules within a complex spheroid model of solid tumors. . Complex spheroids include a stromal component modeled by human endothelial cells (HUVEC) and fibroblasts modeled by human mesenchymal stem cells (MSCs). The concentration ranges selected for each drug and investigational agent were based upon clinically achievable concentrations if the clinical Cmax of the agent was known.
Compounds. The drugs and investigational agents: novobiocin (NSC847541), ART-558 (NSC835418), RP-6685 (NSC848927), peposertib (NSC802822), ceralasertib (NSC780249), elimusertib (NSC800525), camonsertib (NSC841442), AZD-1390 (NSC803789), olaparib (NSC753686), talazoparib (NSC767125), rucaparib (NSC756644), sotorasib (NSC818433), MRTX-1133 (NSC836407), SN-38 (NSC673596), topotecan (NSC609699), epotoside (NSC141540), doxorubicin (NSC123127), gemcitabine (NSC613327), 5-fluorouracil (NSC19893), paclitaxel (NSC125973), vemurafenib (NSC761431), MSA-2 (NSC828583), SN-011 (NSC837082), adavosertib (NSC754352), prexasertib (NSC758257), carboplatin (NSC241240) and oxaliplatin (NSC266046), were obtained from the National Cancer Institute (NCI) Developmental Therapeutics Program Chemical Repository (21). The FDA-approved anticancer drug set is available from the Developmental Therapeutics Program at https://dtp.cancer.gov/organization/dscb/obtaining/. […] The stock solutions were prepared in dimethyl sulfoxide (DMSO, Sigma-Aldrich, St. Louis, MO, cat. D2650), except for the platinum compounds which were prepared in saline (Quality Biological, Gaithersburg, MD, cat. 114-055-101), at 800-fold the tested concentration and stored at -70 degrees C prior to their use. All drugs and investigational agents were tested over a range starting from a high concentration at or near the clinical Cmax and decreasing in half-log increments. If the clinical Cmax for an agent had not been determined, the highest concentration tested was 10 microM, except for SN-38, which was tested at a high concentration of 1 microM.
Cell Culture. All cells were maintained in an incubator at 37 degrees C and 5% CO2 with 95% humidity. The PDC lines were cultured according to standard operating procedures established by the NCI PDMR (https://pdmr.cancer.gov). Table 3 of the manuscript, lists the cell lines along with the number of the three cell types plated to form the mct-spheroids and media for tumor cell growth. After thawing, all PDC lines, except 997537-175-T-J1-PDC and 415267-285-R-J2-PDC, were cultured in Matrigel-coated flasks prepared with a working solution of 1X Ham's F-12 nutrient mix, without supplementation (Thermo Fisher Scientific, cat. 11765054), 100 U/mL penicillin-streptomycin (Thermo Fisher Scientific, cat. 15140122), and 2.5% Matrigel (Corning Inc., Corning, NY, cat. 354248) for the first three passages. The two PDC lines 997537-175-T-J1-PDC and 415267-285-R-J2-PDC were cultured on uncoated flasks. The 857933-349-R-J2-PDC line was cultured in 6C/Colon 1B media containing advanced DMEM/F-12 (Thermo Fisher Scientific, cat. 12634028), 10 mM HEPES (Thermo Fisher Scientific, cat. 15630080), 1X GlutaMAX supplement (Thermo Fisher Scientific, cat. 35050061), 0.1 mg/mL primocin (InvivoGen, San Diego, CA, cat. ant-pm-2), 10% defined fetal bovine serum, heat inactivated (HyClone Laboratories Inc., Logan, UT, cat. SH30070.03HI), 50% L-WRN conditioned media (ATCC, cat. CRL-3276), 1.25 mM N-Acetyl-L-cysteine (Sigma-Aldrich, cat. A9165), 10 mM nicotinamide (Sigma-Aldrich, cat. N0636), 1X B-27 supplement (Thermo Fisher Scientific, cat. 17504044), 1X N-2 supplement (Thermo Fisher Scientific, cat. […]

[1] = second compound 0.0316 µM, first compound 0.0316 µM
[2] = second compound 0.0316 µM, first compound 0.1 µM
[3] = second compound 0.0316 µM, first compound 0.316 µM
[4] = second compound 0.0316 µM, first compound 1 µM
[5] = second compound 0.0316 µM, first compound 3.16 µM
[6] = second compound 0.0316 µM, first compound 10 µM
[7] = second compound 0.1 µM, first compound 0.0316 µM
[8] = second compound 0.1 µM, first compound 0.1 µM
[9] = second compound 0.1 µM, first compound 0.316 µM
[10] = second compound 0.1 µM, first compound 1 µM
[11] = second compound 0.1 µM, first compound 3.16 µM
[12] = second compound 0.1 µM, first compound 10 µM
[13] = second compound 0.316 µM, first compound 0.0316 µM
[14] = second compound 0.316 µM, first compound 0.1 µM
[15] = second compound 0.316 µM, first compound 0.316 µM
[16] = second compound 0.316 µM, first compound 1 µM
[17] = second compound 0.316 µM, first compound 3.16 µM
[18] = second compound 0.316 µM, first compound 10 µM
[19] = second compound 1 µM, first compound 0.0316 µM
[20] = second compound 1 µM, first compound 0.1 µM
[21] = second compound 1 µM, first compound 0.316 µM
[22] = second compound 1 µM, first compound 1 µM
[23] = second compound 1 µM, first compound 3.16 µM
[24] = second compound 1 µM, first compound 10 µM
[25] = second compound 3.16 µM, first compound 0.0316 µM
[26] = second compound 3.16 µM, first compound 0.1 µM
[27] = second compound 3.16 µM, first compound 0.316 µM
[28] = second compound 3.16 µM, first compound 1 µM
[29] = second compound 3.16 µM, first compound 3.16 µM
[30] = second compound 3.16 µM, first compound 10 µM
[31] = second compound 10 µM, first compound 0.0316 µM
[32] = second compound 10 µM, first compound 0.1 µM
[33] = second compound 10 µM, first compound 0.316 µM
[34] = second compound 10 µM, first compound 1 µM
[35] = second compound 10 µM, first compound 3.16 µM
[36] = second compound 10 µM, first compound 10 µM
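Further: spheroids exposed to drugs for one week before readout.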
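Wherever viability, T/C is given: percent viability relative to DMSO vehicle control wells set as 100%.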

Work on C#Cc1c(F)ccc2cc(O)cc(-c3ncc4c(N5CC6CCC(C5)N6)nc(OCC56CCCN5CC(F)C6)nc4c3F)c12 (stereo unspecified) + Nc1ccc(C#CCN(C(=O)Cc2ncc(C(F)(F)F)cc2C(F)(F)F)c2ccc(F)cc2)nn1 yielded an IC50 (second compound 0.0316 µM) greater than 10 µM, an IC50 (second compound 0.1 µM) greater than 10 µM and an IC50 (second compound 0.316 µM) greater than 10 µM. For the same compound, the IC50 (second compound 1 µM) was greater than 10 µM, the IC50 (second compound 3.16 µM) was greater than 10 µM and the IC50 (second compound 10 µM) was greater than 10 µM. For the same compound, the viability, T/C [1] was 97.8%, the viability, T/C [2] was 95% and the viability, T/C [3] was 83.7%. It also gave a viability, T/C [4] of 80.1%, a viability, T/C [5] of 71.8% and a viability, T/C [6] of 64.5%. It also gave a viability, T/C [7] of 125%, a viability, T/C [8] of 83.2% and a viability, T/C [9] of 79.1%. The viability, T/C [10] was 82.2%, the viability, T/C [11] was 75.9% and the viability, T/C [12] was 71.2%. For the same compound, the viability, T/C [13] was 84.4%, the viability, T/C [14] was 101% and the viability, T/C [15] was 84.2%. It also gave a viability, T/C [16] of 76.7%, a viability, T/C [17] of 79.8% and a viability, T/C [18] of 59.3%. For the same compound, the viability, T/C [19] was 105%, the viability, T/C [20] was 101% and the viability, T/C [21] was 89.4%. For the same compound, the viability, T/C [22] was 85.6%, the viability, T/C [23] was 81.2% and the viability, T/C [24] was 59.2%. For the same compound, the viability, T/C [25] was 88%, the viability, T/C [26] was 93.4% and the viability, T/C [27] was 74.2%. The viability, T/C [28] was 87%, the viability, T/C [29] was 80.3% and the viability, T/C [30] was 66.3%. For the same compound, the viability, T/C [31] was 99.1%, the viability, T/C [32] was 78.2% and the viability, T/C [33] was 80%. For the same compound, the viability, T/C [34] was 70.7%, the viability, T/C [35] was 79.3% and the viability, T/C [36] was 53.1%.
CC1COCCN1c1cc(C2(S(C)(=N)=O)CC2)nc(-c2ccnc3[nH]ccc23)n1 (stereo unspecified) + Nc1ccc(C#CCN(C(=O)Cc2ncc(C(F)(F)F)cc2C(F)(F)F)c2ccc(F)cc2)nn1 gave an IC50 (second compound 0.0316 µM) of 5.2 µM, an IC50 (second compound 0.1 µM) of 4.68 µM and an IC50 (second compound 0.316 µM) of 5.47 µM. For the same compound, the IC50 (second compound 1 µM) was 4.85 µM, the IC50 (second compound 3.16 µM) was 3.93 µM and the IC50 (second compound 10 µM) was 5.63 µM. It also gave a viability, T/C [1] of 111%, a viability, T/C [2] of 108% and a viability, T/C [3] of 93.2%. The viability, T/C [4] was 82.3%, the viability, T/C [5] was 71% and the viability, T/C [6] was 28.3%. The viability, T/C [7] was 111%, the viability, T/C [8] was 110% and the viability, T/C [9] was 97.4%. It also gave a viability, T/C [10] of 77.9%, a viability, T/C [11] of 63.6% and a viability, T/C [12] of 28.9%. The viability, T/C [13] was 99.4%, the viability, T/C [14] was 104% and the viability, T/C [15] was 91.9%. For the same compound, the viability, T/C [16] was 84.3%, the viability, T/C [17] was 65.9% and the viability, T/C [18] was 32.8%. For the same compound, the viability, T/C [19] was 103%, the viability, T/C [20] was 106% and the viability, T/C [21] was 90.4%. The viability, T/C [22] was 80%, the viability, T/C [23] was 64.4% and the viability, T/C [24] was 28.9%. The viability, T/C [25] was 100%, the viability, T/C [26] was 98.9% and the viability, T/C [27] was 99.5%. For the same compound, the viability, T/C [28] was 92.6%, the viability, T/C [29] was 54.7% and the viability, T/C [30] was 29.7%. The viability, T/C [31] was 98.5%, the viability, T/C [32] was 90.6% and the viability, T/C [33] was 87.9%. For the same compound, the viability, T/C [34] was 90.9%, the viability, T/C [35] was 70.2% and the viability, T/C [36] was 29.8%.
CNCc1ccc(-c2[nH]c3cc(F)cc4c3c2CCNC4=O)cc1 + Nc1ccc(C#CCN(C(=O)Cc2ncc(C(F)(F)F)cc2C(F)(F)F)c2ccc(F)cc2)nn1 was tested, and the IC50 (second compound 0.0316 µM) was greater than 10 µM, the IC50 (second compound 0.1 µM) was greater than 10 µM and the IC50 (second compound 0.316 µM) was greater than 10 µM. It also gave an IC50 (second compound 1 µM) greater than 10 µM, an IC50 (second compound 3.16 µM) greater than 10 µM and an IC50 (second compound 10 µM) greater than 10 µM. It also gave a viability, T/C [1] of 94.5%, a viability, T/C [2] of 87.2% and a viability, T/C [3] of 91.2%. It also gave a viability, T/C [4] of 83.1%, a viability, T/C [5] of 86.2% and a viability, T/C [6] of 71.3%. It also gave a viability, T/C [7] of 96.7%, a viability, T/C [8] of 115% and a viability, T/C [9] of 90.7%. It also gave a viability, T/C [10] of 87.8%, a viability, T/C [11] of 101% and a viability, T/C [12] of 71.3%. For the same compound, the viability, T/C [13] was 101%, the viability, T/C [14] was 108% and the viability, T/C [15] was 95%. For the same compound, the viability, T/C [16] was 82.6%, the viability, T/C [17] was 115% and the viability, T/C [18] was 73.7%. For the same compound, the viability, T/C [19] was 103%, the viability, T/C [20] was 90.2% and the viability, T/C [21] was 91.2%. For the same compound, the viability, T/C [22] was 79.5%, the viability, T/C [23] was 95.3% and the viability, T/C [24] was 84.1%. For the same compound, the viability, T/C [25] was 102%, the viability, T/C [26] was 89.5% and the viability, T/C [27] was 101%. The viability, T/C [28] was 80.1%, the viability, T/C [29] was 93% and the viability, T/C [30] was 71.1%. For the same compound, the viability, T/C [31] was 90%, the viability, T/C [32] was 81.4% and the viability, T/C [33] was 93%. For the same compound, the viability, T/C [34] was 95.1%, the viability, T/C [35] was 98.7% and the viability, T/C [36] was 73.1%.
